Read-outs that look alike come from different tables or passages of the source.
Assays:
[1] = target: T1, A2A receptor (Homo sapiens, UniProt P29274); assay: cAMP functional assay in forskolin-pretreated HEK 293 cells; assay type: cell-based; settings: 25 μM forskolin 2 h, then 100 nM compound for 24 h
T1 construct: host or cells: HEK 293
Procedure: To determine the modulation in cAMP concentrations, cells were pre-treated with Forskolin. Forskolin is commonly used to activate adenylyl cyclase, so as to raise the levels of cAMP, in the various cell physiology experiments. […] Cells were washed with ice-cold PBS (pH 7.4). Further, cells were treated with 0.1M HCl, incubated for 10 minutes and visually inspected to verify cell lysis. Lysed cells were centrifuged at 1000 rpm at room temperature and the supernatant was used directly for cAMP assay using direct cAMP assay kit. All standards and samples were run in duplicate. 50 μl of the neutralizing reagent was added into each well of 96-well microplate coated with goat anti-rabbit IgG antibody, except the total activity (TA) and blank wells. Again, 100 μl of HCl (0.1M) was added into the NSB (Non-specific bound) and the Bo (0 pmol/ml standard) Wells: 100 μl of standards 1 to 5 was pippeted into the appropriate wells. 50 μl of 0.1M HCl was added into the NSB wells, followed by 50 μl of blue conjugate (alkaline phosphatase conjugated with cAMP) into each well except the TA and blank wells. 50 μl of yellow coloured primary antibody against cAMP into each well, except the blank, TA and NSB wells. Microplate was incubated at room temperature for 2 hours on a plate shaker. Wells were washed twice with 400 μl of wash solution. 5 μl of blue conjugate was added to the TA wells, followed by the addition of 200 μl of p-nitrophenyl phosphate substrate solution to every well. Plate was again incubated for 1 hour without shaking. Reaction was stopped by adding 50 μl of stop solution to every well.
The average net O.D. bound for each standard and sample was calculated using formula; Average Net OD=Average bound OD−Average NSB OD
The binding of each pair of standard wells as a percentage of the maximum binding well (Bo) was calculated using the formula; Percent Bound=Net OD/Net Bo OD×100
Standard curve was prepared using Logit-Log Paper plot by drawing percent bound (B/Bo) versus concentration of cAMP for the standards. The concentration of the cAMP in the samples was determined by interpolation.
Binding parameters were estimated by the computerized non-linear fitting program Graph Pad (Prism 4.0). […] Data were expressed as geometric means with 95% confidence limits in parentheses. Estimation of cAMP concentrations in functional assay was carried by Student's paired t-test. P<0.05 was considered significant. All analysis was performed by using GraphPad Prism 4.0 (GraphPad Software, San Diego, USA). Results are given, as mean±S.E.M

[2] = target: human A2AR (Homo sapiens, UniProt P29274); assay: Competitive radioligand binding assay, [3H] ZM 241385, membranes of HEK 293 cells stably expressing human A2AR; settings: for hA1/hA2A ratio: selectivity: Ki hA1 / Ki hA2A; for selectivity over A1 adenosine receptor: A2AR versus A1R binding
Procedure: (§1) Aliquots of membrane proteins from both A2AR and A1R were rapidly frozen and stored at −20° C.
(§2) About 10 μg of membrane protein was added to each well of multiscreen 96-well plate equipped with GF/B filters. Incubation buffer (50 mM Tris, 1 mM EDTA, pH 7.4) containing adenosine deaminase (1 U/ml) was added to each well to remove endogenous adenosine bound to the receptors and volume was adjusted to 100 μl by adding incubation buffer. Plate was incubated at 37° C. for 1 hour. […] Final volume was adjusted to 200 μl by adding incubation buffer and incubated at 26° C. for 30 minutes. Binding reaction was terminated by rapid filteration of filter plates using vacuum manifold system. Filterate (unbound radioligand) was collected in a 96-well plate laying down the filter plate. Filters were washed three times with ice-cold washing buffer (50 mM Tris-Cl; 2.5 mM MgCl2 pH 7.4). Finally, 100 μl of scintillation fluid was added to all wells of plate containing unbound filtrate as well as to the filter plate (bound radioligand) and incubated overnight at room temperature. […] DPCPX were read using β-counter.
(§3) About 10 μg of membrane protein was added to each well of a 96-well filter plate. Incubation buffer containing adenosine deaminase (1 U/ml) was added to the membrane protein and incubated at 37° C. for 1 hour, to remove endogenous adenosine. […] Filter plates were incubated at 26° C. for 30 minutes and reaction was terminated by rapid filtration of unbound radioligands. Filters containing ligand bound receptors were washed three times with ice-cold washing buffer to completely remove any unbound radioligand or receptor. Finally, 100 μl of scintillation fluid was added to each well and incubated overnight at room temperature. β-counts emitted from bound radioligands ([^3H] ZM241385 and [^3H] DPCPX) were counted using β-counter. Duplicate values of β-counts per minute at corresponding concentrations (1 pM to 1 μM) were added to the data sheet of graph pad prism 4.0. Concentration values were considered as X-values and counts per minute were considered as Y-values (in duplicate). X-values were transformed into logX and Ki value was calculated using nonlinear regression (curve fit program).
(§4) Binding parameters were estimated by the computerized non-linear fitting program Graph Pad (Prism 4.0). […] Data were expressed as geometric means with 95% confidence limits in parentheses. […] P<0.05 was considered significant. All analysis was performed by using GraphPad Prism 4.0 (GraphPad Software, San Diego, USA). Results are given, as mean±S.E.M

[3] = target: T2, human A1R (Homo sapiens, UniProt P30542); assay: Competitive radioligand binding assay, [3H] DPCPX, membranes of HEK 293 cells stably expressing human A1R
T2 sequence (P30542 1-326): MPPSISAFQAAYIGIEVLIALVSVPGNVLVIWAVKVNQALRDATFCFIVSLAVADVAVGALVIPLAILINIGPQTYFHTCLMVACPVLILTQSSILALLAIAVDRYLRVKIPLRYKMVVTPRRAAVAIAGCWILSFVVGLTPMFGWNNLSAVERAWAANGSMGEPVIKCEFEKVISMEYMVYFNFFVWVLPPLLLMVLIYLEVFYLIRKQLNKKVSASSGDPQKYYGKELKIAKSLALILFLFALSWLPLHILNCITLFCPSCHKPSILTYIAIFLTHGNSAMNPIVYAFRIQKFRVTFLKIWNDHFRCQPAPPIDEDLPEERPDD
Procedure: as §1, §2, §3, §4

[4] = read-out: hA2A binding Ki ± SD, displacement of 1 nM [3H] ZM 241385, HEK 293 membranes, test compounds 1 pM to 1 μM
[5] = read-out: hA1 binding Ki ± SD, displacement of 0.75 nM [3H] DPCPX, HEK 293 membranes, test compounds 1 pM to 1 μM

Sequence of human A2AR (P29274 whole entry): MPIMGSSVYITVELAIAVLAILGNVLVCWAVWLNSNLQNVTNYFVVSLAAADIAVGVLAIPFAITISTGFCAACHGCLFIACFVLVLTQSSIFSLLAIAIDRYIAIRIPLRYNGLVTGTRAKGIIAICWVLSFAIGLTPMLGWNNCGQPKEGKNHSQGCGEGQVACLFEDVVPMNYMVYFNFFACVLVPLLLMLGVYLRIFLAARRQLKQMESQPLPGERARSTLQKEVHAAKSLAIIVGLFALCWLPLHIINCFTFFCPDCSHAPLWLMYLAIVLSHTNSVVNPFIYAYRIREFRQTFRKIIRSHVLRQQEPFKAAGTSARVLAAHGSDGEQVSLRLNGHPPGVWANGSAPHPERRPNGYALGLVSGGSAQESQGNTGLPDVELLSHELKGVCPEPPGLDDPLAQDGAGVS
T1 sequence (P29274 whole entry): as above

| cAMP concentration [1] [nM] | Ki [2] [nM] | hA1/hA2A ratio [2] | melting point [°C] | selectivity over A1 adenosine receptor [2] [fold] | Ki [2, 4] [nM] | Ki [3, 5] [nM] | Ki [3] [nM] | Compound |
| --- | --- | --- | --- | --- | --- | --- | --- | --- |
| 0.085 | 0.09 ± 0.01 | 0.00177 | 212 | – | – | – | – | CCn1c(=S)sc2c(=N)n(NC(N)=O)cnc21 [Compound 15, (3-Ethyl-7-imino-2-thioxo-3,7-dihydro-2H-thiazolo[4,5-d]pyrimidin-6-yl)-urea] |
| 0.14 | – | 736.84 | 220 | 766 | 0.0038 ± 0.001 | 2.8 ± 0.8 | – | CCCn1c(=S)sc2c(=N)n(NC(N)=O)cnc21 [Compound 16] |
| 0.083 | 0.089 ± 0.01 | 11.685 | 222 | – | – | – | 1.04 ± 0.84 | CCCCn1c(=S)sc2c(=N)n(NC(N)=O)cnc21 [Compound 17, (7-Imino-3-butyl-2-thioxo-3,7-dihydro-2H-thiazolo[4,5-d]pyrimidin-6-yl)-urea] |
| 0.08 | 0.092 ± 0.01 | 5.11 | 202 | – | – | – | 0.47 ± 0.1 | C=CCn1c(=S)sc2c(=N)n(NC(N)=O)cnc21 [Compound 18] |
| 0.078 | 0.063 ± 0.008 | 23.81 | 225 | – | – | – | 1.5 ± 1.1 | N=c1c2sc(=S)n(-c3ccccc3)c2ncn1NC(N)=O [Compound 19, (7-Imino-3-phenyl-2-thioxo-3,7-dihydro-2H-thiazolo[4,5-d]pyrimidin-6-yl)-urea] |
| 0.076 | 0.017 ± 0.01 | 147.06 | 235 | 144 | – | – | 2.5 ± 1.1 | N=c1c2sc(=S)n(-c3ccc(I)cc3)c2ncn1NC(N)=O [Compound 20, (3-p-iodophenyl-7-imino-2-thioxo-3,7-dihydro-2H-thiazolo[4,5-d]pyrimidin-6-yl)-urea] |
| 0.067 | 0.023 ± 0.014 | 6.09 | 190 | – | – | – | 0.14 ± 0.086 | N=c1c2sc(=S)n(Cc3ccccc3)c2ncn1NC(N)=O [Compound 21, (3-Benzyl-7-imino-2-thioxo-3,7-dihydro-2H-thiazolo[4,5-d]pyrimidin-6-yl)-urea] |
| 0.12 | 1.2 ± 1.1 | 0.0133 | 226 | – | – | – | 0.016 ± 0.01 | CCn1c(=S)sc2c(=N)n(NC(=O)c3ccco3)cnc21 [Compound 22, Furan-2-carboxylic acid (3-ethyl-7-imino-2-thioxo-3,7-dihydro-2H-thiazolo[4,5-d]pyrimidin-6-yl)-amide] |
| 0.092 | 0.024 ± 0.01 | 3.625 | 206 | – | – | – | 0.087 ± 0.05 | CCCn1c(=S)sc2c(=N)n(NC(=O)c3ccco3)cnc21 [Compound 23, Furan-2-carboxylic acid (7-imino-3-propyl-2-thioxo-3,7-dihydro-2H-thiazolo[4,5-d]pyrimidin-6-yl)-amide] |
| 0.06 | 0.029 ± 0.01 | 0.183 | 210 | – | – | – | 0.0053 ± 0.001 | CCCCn1c(=S)sc2c(=N)n(NC(=O)c3ccco3)cnc21 [Compound 24, Furan-2-carboxylic acid (3-butyl-7-imino-2-thioxo-3,7-dihydro-2H-thiazolo[4,5-d]pyrimidin-6-yl)-amide] |
| 0.048 | 0.33 ± 0.75 | 0.026 | 228 | – | – | – | 0.0085 ± 0.001 | N=c1c2sc(=S)n(-c3ccccc3)c2ncn1NC(=O)c1ccco1 [Compound 26, Furan-2-carboxylic acid (7-imino-3-phenyl-2-thioxo-3,7-dihydro-2H-thiazolo[4,5-d]pyrimidin-6-yl)-amide] |
| 0.084 | – | 3.47 | – | – | 0.17 ± 0.1 | 0.59 ± 0.11 | – | Furan-2-carboxylic acid (7-imino-3-propenyl-2-thioxo-3,7-dihydro-2H-thiazolo[4,5-d]pyrimidin-6-yl)-amide [Compound 25] |

Source: US8835442B2, “3-substituted 7-imino-2-thioxo-3, 7-dihydro-2H-thiazolo [4,5-di pyrimidin-6-yl—and process for preparation thereof” (Council of Scientific & Industrial Research, priority 2009, dated 2014)
